Results from patent US8022080B2, “Small molecules with antiprotozoal activity” (Radix Pharmaceuticals Inc., priority 2009, dated 2011).
Converted amounts (≈) assume the structure as drawn. Read-outs that look alike come from different tables or passages of the source.

Key:
[1] = test system: P. falciparum D6 (chloroquine sensitive); experiment: In vitro anti-malarial activity, [3H]hypoxanthine uptake, D6 clone; type: cell-based, Plasmodium falciparum
Excerpt: (§1) For in vitro toxicological studies, the following cell line was chosen: human adult liver epithelial cells (THLE-3). THLE-3 cells express phenotypic characteristics of normal adult liver epithelial cells and constitute a valuable model for pharmacotoxicological studies.
(§2) Two P. falciparum malaria parasite clones, W2 and D6, from Malaria Research and Reference Reagent Resource Center (MR4), were utilized in susceptibility testing. […] Test compounds were initially dissolved in DMSO and diluted 400 fold in RPMI 1640 culture medium supplemented with 25 mM Hepes, 32 mM NaHCO3 and 10% Albumax I (Gibco, N.Y.). These solutions were subsequently serially diluted two-fold with a Beckman Biomek® 1000 Robot (Fullerton, Calif.) over 11 different concentrations. The parasites were exposed to serial dilutions of each compound for 48 hrs and incubated at 37° C. with 5% O2, 5% CO2 and 90% N2 prior to the addition of [^3H]hypoxanthine. After a further incubation of 18 hrs, parasite DNA was harvested from each microtiter well using Packard Filtermate™ 196 Harvester (Meriden, Conn.) onto glass filters. Uptake of [^3H]hypoxanthine was measured with a Packard TopCount Liquid Scintillation Counter (Packard Instrument Co.).

[2] = test system: P. falciparum W2 (chloroquine resistant); experiment: In vitro anti-malarial activity, [3H]hypoxanthine uptake, W2 clone; type: cell-based, Plasmodium falciparum
Excerpt: as §1, §2

P. berghei [3] = experiment: Blood schizontocidal test in mice, oral; type: in vivo; conditions: for toxicity in mice: oral, at the highest dose tested
Protocol: Drugs were mixed in 0.5% hydroxycellulose 0.1% Tween 80 and administered orally b.i.d. on days 3, 4 and 5 postinfection. CD-1 male or female mice, 5 weeks of age, were infected with 5×10^4 parasitized erythrocytes of Plasmodium berghei KBG-173 mm strain. Blood films were taken on day +6 and weekly thereafter until day +60. Parasitemias were calculated and SD90 value (dose suppressing 90% of the parasites in treated groups compared with the infected non-treated controls) on day +6 postinfection. Mortality data was tabulated for 60 days at which time all mice surviving that were blood film negative were considered cured. […]

[4] = test system: human adult liver epithelial cells (THLE-3); experiment: In vitro toxicity evaluation, Sulforhodamine B; type: cell-based; conditions: for IC50: Homo sapiens, read-out: IC50 THLE-3; for Selectivity IC50 (THLE-3)/IC50 (D6): ratio THLE-3 vs D6
Protocol: as §1
Human adult liver epithelial cells (THLE-3) was maintained in tissue culture flasks in Waymouth's medium (Gibco, N.Y.) supplemented with 10% fetal bovine serum. Toxicity tests were performed in 96-well tissue culture plates using the protein-binding dye Sulforhodamine B. Test compounds were serially diluted and added to empty wells of the 96-well plate. THLE-3 cells in their culture medium were immediately seeded into the wells. Solvent blanks (no compound) were run in each test. After 72 hours under culture conditions cells were fixed to the plate by layering 50% TCA (4° C.) over the growth media in each well to produce a final TCA concentration of 10%. After incubating for one hour at 4° C., cultures were washed five times with tap water and left air-dried. Wells were stained for 30 min. with 0.4% (w/v) SRB in 1% acetic acid and washed four times with 1% acetic acid. Cultures were left air-dried and bound dye was solubilized with 10 mM Tris base (pH 10.5) for 15 min. on a gyratory shaker at room temperature. A Spectra MAX Plus Microtiter Plate Reader (Molecular Devices, Menlo Park, Calif.) was used to measure the optical density at wavelengths of 490-530 nm.

[5] = test system: Plasmodium berghei KBG-173; experiment: Prophylactic test in mice, oral; type: in vivo; conditions: for Mice infected and treated/Mice surviving day 60: oral; for protection from malaria: single dose of 0.5 mg/kg within 2 days pre-infection through 2 days post-infection
Protocol: Compounds were tested for oral prophylactic activity.
CD-I male or female mice, 5 weeks of age, were infected with 5×10^4 parasitized erythrocytes of Plasmodium berghei KBG-173 mm strain. […]

P. berghei [6] = experiment: Suppressive blood schizontocidal activity in mice, subcutaneous single dose; type: in vivo; conditions: 72 h after infection
Protocol: Mice were treated with a single dose of the compound administered subcutaneously 72 h after infection. Number of cures is the number of mice surviving, out of five, 60 days postinfection.

[7] = oral dose 0.25 mg/kg/day (total dose 0.75 mg/kg)
[8] = oral dose 1.0 mg/kg/day (total dose 3.0 mg/kg)
[9] = oral dose 4.0 mg/kg/day (total dose 12 mg/kg)
[10] = oral dose 16 mg/kg/day (total dose 48 mg/kg)
[11] = oral dose 64 mg/kg/day (total dose 192 mg/kg)
[12] = Plasmodium falciparum, D6; read-out: IC50 D6 Strain
[13] = day of treatment 1, dose 0.5 mg/kg
[14] = day of treatment 1, dose 2 mg/kg
[15] = day of treatment 1, dose 8 mg/kg
[16] = day of treatment 1, dose 32 mg/kg
[17] = day of treatment 2, dose 0.5 mg/kg
[18] = day of treatment 2, dose 2 mg/kg
[19] = day of treatment 2, dose 8 mg/kg
[20] = day of treatment 2, dose 32 mg/kg
[21] = day of treatment −1, dose 0.5 mg/kg
[22] = day of treatment −1, dose 2 mg/kg
[23] = day of treatment −1, dose 8 mg/kg
[24] = day of treatment −1, dose 32 mg/kg
[25] = day of treatment −2, dose 0.5 mg/kg
[26] = day of treatment −2, dose 2 mg/kg
[27] = day of treatment −2, dose 8 mg/kg
[28] = day of treatment −2, dose 32 mg/kg
[29] = Plasmodium falciparum, W2; read-out: IC50 W2 Strain
[30] = subcutaneous single dose 1 mg/kg
[31] = subcutaneous single dose 2 mg/kg
[32] = subcutaneous single dose 4 mg/kg
[33] = subcutaneous single dose 8 mg/kg
[34] = subcutaneous single dose 16 mg/kg
[35] = subcutaneous single dose 32 mg/kg
[36] = subcutaneous single dose 64 mg/kg
[37] = subcutaneous single dose 128 mg/kg
[38] = THLE3, THLE-3 cells, 72 hours, cell growth inhibition

Row | SMILES | Mice surviving 60 days/Mice infected and treated (P. berghei [3]; [7]) | Mice surviving 60 days/Mice infected and treated (P. berghei [3]; [8]) | Mice surviving 60 days/Mice infected and treated (P. berghei [3]; [9]) | Mice surviving 60 days/Mice infected and treated (P. berghei [3]; [10]) | Mice surviving 60 days/Mice infected and treated (P. berghei [3]; [11]) | Selectivity IC50 (THLE-3)/IC50 (D6) [4] | inhibitory activity against chloroquine sensitive malaria strain (D-6), in words ([1]; D-6 strain) | IC50 [1, 12] [ng/mL] | Mice infected and treated/Mice surviving day 60 [5, 13] | Mice infected and treated/Mice surviving day 60 [5, 14] | Mice infected and treated/Mice surviving day 60 [5, 15] | Mice infected and treated/Mice surviving day 60 [5, 16] | Mice infected and treated/Mice surviving day 60 [5, 17] | Mice infected and treated/Mice surviving day 60 [5, 18] | Mice infected and treated/Mice surviving day 60 [5, 19] | Mice infected and treated/Mice surviving day 60 [5, 20] | Mice infected and treated/Mice surviving day 60 [5, 21] | Mice infected and treated/Mice surviving day 60 [5, 22] | Mice infected and treated/Mice surviving day 60 [5, 23] | Mice infected and treated/Mice surviving day 60 [5, 24] | other results
1 | CCN(CC)CCCC(C)Nc1ccnc2cc(Cl)ccc12 (centres unmarked) [Chloroquine, reference compound] | 0/7 | 0/7 | 2/7 | 4/7 | 0/7 | 463 |  |  |  |  |  |  |  |  |  |  |  |  |  |  | IC50 ([1]; Plasmodium falciparum, D6, read-out: IC50 D6 Strain): 6.3 ng/mL (≈ 0.0197 µM); IC50 ([2]; Plasmodium falciparum, W2, read-out: IC50 W2 Strain): 108 ng/mL (≈ 0.338 µM); IC50 ([4]; THLE3, 72 h): 2920 ng/mL (≈ 9.13 µM)
2 | CC[C@@]12C=Cc3nc4c(OC)c(OC)c5c(c4cc3C1N(C(C)=O)CC1O[C@@H]12)C(=O)[C@](C)(C(=O)OC)N5C(C)=O (some centres unmarked) [Formula II] | 7/7 | 7/7 | 7/7 | 7/7 | 7/7 | 7.3 × 10^4 | equally potent inhibitory activity | 0.21 | 5/5 | 5/5 | 5/5 | 5/5 | 5/5 | 5/5 | 5/5 | 5/5 | 5/5 | 5/5 | 5/5 | 5/5 | Mice infected and treated/Mice surviving day 60 [5, 25]: 5/5; Mice infected and treated/Mice surviving day 60 [5, 26]: 5/5; Mice infected and treated/Mice surviving day 60 [5, 27]: 5/5; Mice infected and treated/Mice surviving day 60 [5, 28]: 5/5; protection from malaria [5]: completely protected from malaria; IC50 [2, 29]: 0.23 ng/mL; inhibitory activity against chloroquine resistant malaria strain (W-2), in words ([2]; W-2 strain): equally potent inhibitory activity; toxicity in mice (P. berghei [3]): no mice showed toxicity; Mice surviving 60 days/Mice infected and treated (P. berghei [6]; [30]): 4/5; Mice surviving 60 days/Mice infected and treated (P. berghei [6]; [31]): 5/5; Mice surviving 60 days/Mice infected and treated (P. berghei [6]; [32]): 5/5; Mice surviving 60 days/Mice infected and treated (P. berghei [6]; [33]): 5/5; Mice surviving 60 days/Mice infected and treated (P. berghei [6]; [34]): 5/5; Mice surviving 60 days/Mice infected and treated (P. berghei [6]; [35]): 5/5; Mice surviving 60 days/Mice infected and treated (P. berghei [6]; [36]): 5/5; Mice surviving 60 days/Mice infected and treated (P. berghei [6]; [37]): 5/5; IC50 [4, 38]: 15400 ng/mL
3 | CC[C@]12C=CCN(C(C)=O)C1c1cc3c(nc1C=C2)c(OC)c(OC)c1c3cc(C(=O)SC)n1C(C)=O (some centres unmarked) [Formula I] | 7/7 | 7/7 | 7/7 | 7/7 | 7/7 | 5.3 × 10^4 | equally potent inhibitory activity | 0.32 | 5/5 | 5/5 | 5/5 | 5/5 | 5/5 | 5/5 | 5/5 | 5/5 | 5/5 | 5/5 | 5/5 | 5/5 | Mice infected and treated/Mice surviving day 60 [5, 25]: 5/5; Mice infected and treated/Mice surviving day 60 [5, 26]: 5/5; Mice infected and treated/Mice surviving day 60 [5, 27]: 5/5; Mice infected and treated/Mice surviving day 60 [5, 28]: 5/5; protection from malaria [5]: completely protected from malaria; IC50 [2, 29]: 0.29 ng/mL; inhibitory activity against chloroquine resistant malaria strain (W-2), in words ([2]; W-2 strain): equally potent inhibitory activity; toxicity in mice (P. berghei [3]): no mice showed toxicity; Mice surviving 60 days/Mice infected and treated (P. berghei [6]; [30]): 4/5; Mice surviving 60 days/Mice infected and treated (P. berghei [6]; [31]): 5/5; Mice surviving 60 days/Mice infected and treated (P. berghei [6]; [32]): 5/5; Mice surviving 60 days/Mice infected and treated (P. berghei [6]; [33]): 5/5; Mice surviving 60 days/Mice infected and treated (P. berghei [6]; [34]): 5/5; Mice surviving 60 days/Mice infected and treated (P. berghei [6]; [35]): 5/5; Mice surviving 60 days/Mice infected and treated (P. berghei [6]; [36]): 5/5; Mice surviving 60 days/Mice infected and treated (P. berghei [6]; [37]): 5/5; IC50 [4, 38]: 17100 ng/mL
